Legend:
[1] = system: cultured hippocampal neurons; assay: Immunocytochemical localization of surface synaptic receptors (GluR2, GluR1, NR1, GABAAβ1); type: cell-based, rat; conditions: for GluR1-positive synapses: cycloheximide 60 μM applied 15 min before DHPG where named
Source text: We next determined if the DHPG-induced increase in internalized AMPARs is accompanied by a net decrease in surface-expressed receptor clusters at synapses. At various intervals after DHPG washout, cells were fixed and surface GluR2 or GluR1 was labeled with N-terminal antibodies without permeabilization. The cultures were then permeabilized, and synapses were labeled using an antibody against the presynaptic marker synapsin I or synaptophysin coupled to the appropriate secondary antibody. Under control conditions, most synapses were immunoreactive for AMPAR clusters (GluR2, 80.6±9.0%; n=10 cells, 200 synapses, FIGS. 5A-D; GluR1, 72.5±4.7%; n=15 cells, 225 synapses; FIGS. 5E and F).
Following experimental treatment, low-density cultures were fixed in 4% paraformaldehyde with 4% sucrose for 5 min. Cultures were rinsed in PBS and then blocked in PBS with 20% fetal bovine serum for 1 h. Cultures were stained with N-terminal receptor antibodies overnight at 4° C. (GluR2, 1:100, Chemicon, Ternecula, California; GluR1, 1:100, gift of R. Huganir; NR1, 1:500, Chemicon MAB363; GABAAβ1, 1:100 Santa Cruz Biologicals, Santa Cruz, Calif.). Cultures were then rinsed in blocking buffer containing 0.1% Triton-X for 20 min and exposed to antibodies directed against presynaptic proteins (synapsin 1, 1:1000, Chemicon; synaptophysin, 1:100, Boehringer Manheim, Irvine, Calif.) for 1 h at room temperature. Cultures were then rinsed and exposed to the appropriate fluorescent secondary antibodies (Jackson Immunoresearch, West Grove, Pa.).
Microscopy was performed with a Nikon E800 microscope using a 60×1.4 NA objective (Melville, N.Y.). Fluorescence images were collected with a Sensys cooled CCD camera and analyzed using IP-Labs software. Additional images were collected with a Olympus Flowview confocal microscope with a 60×1.2 NA objective. All analyses were performed blind to the stimulation history of the culture. Microscopic fields had 1-3 neurons displaying smooth soma and generally healthy morphology with multiple distinct processes. Immunofluorescence was analyzed along the proximal 50 μm of 3 or more dendrites per neuron. Immunoreactive puncta were defined as discrete points along the dendrite with fluorescence intensity twice the background staining of the neuron. Five cells were analyzed per culture and 3-6 cultures were analyzed per condition. Separate controls were performed with each experiment and a Student's t-test was used to determine statistical significance. Data are expressed as puncta per 10 μm of dendrite unless stated otherwise.

[2] = system: cultured hippocampal cells; assay: AMPAR-mediated mEPSC recordings; type: cell-based, rat; conditions: for mEPSC inter-event interval, % of baseline: 5 min; for mEPSC amplitude, % baseline: not statistically significant
[3] = system: CA1 neurons in hippocampal slices; assay: NMDA-evoked currents in CA1 neurons of hippocampal slices; type: cell-based, Long Evans rats; conditions: DHPG 100 μM, 5 min; 50-60 min after treatment
Description: As an additional test for an mGluR-induced loss of NMDAR function, we examined the effects of 100 μM DHPG (5 min) on currents evoked by NMDA applied near the proximal portion of the primary apical dendrite (FIG. 9B). Significant depression of NMDAR currents occurred (percent baseline at 50-60 min after DHPG treatment, DHPG, 61.1±12.0, n=7; control, 97.3±9.4; n=7; p<0.05); however, the time course of this change was much slower than that observed for synaptically evoked EPSCs. […] The early LTD of EPSCs could be accounted for by a presynaptic mechanism or by the rapid dispersal of synaptic NMDARs (without immediate internalization). […] Regardless of the early consequences, however, the parallel depression of NMDAR EPSCs and NMDA-evoked responses 60 minutes after DHPG treatment is consistent with an eventual reduction in surface NMDAR expression during mGluR-LTD.
Hippocampal slices were prepared from P21-30 Long Evans rats (Charles River, Cambridge, Mass.) as described previously^13,14. Slices recovered for 1-2 h at room temperature in artificial cerebrospinal fluid (ACSF) containing 124 mM NaCl, 5 mM KCl, 1.25 mM NaH2PO4, 26 mM NaHCO3, 1 mM MgCl2, 2 mM CaCl2, 10 mM dextrose, saturated with 95% O2, 5% CO2. […]
Synaptically evoked-NMDAR-mediated EPSCs were recorded from area CA1 as described previously for visual cortex^20. […]

## NC(C(=O)O)c1cc(O)cc(O)c1 (racemic) [DHPG, (RS)-3,5-dihydroxyphenylglycine]
[1]; 15 min after DHPG
  GluR1-positive synapses: 29.3±5.4%
[1]; 15 minutes after DHPG treatment
  NR1-positive synapses: 28±6%
[1]; 1 h after DHPG
  change in synapsin puncta density (in words): no change
[1]; 60 min after DHPG treatment
  synapsin-labeled puncta with GABAAβ1 clusters: 10.9±2%
[1]; 60 min after DHPG
  GluR1-positive synapses: 20.0±12.0%
[1]; 1 hour after DHPG treatment
  synapses with surface staining for GluR2: 40.8±11%
[1]; 60 minutes after DHPG treatment, with cycloheximide where named
  NR1-positive synapses: 21±3%
[2]; 15 min after DHPG 50 μM
  mEPSC inter-event interval, % of baseline: 315%
[2]; 15 minutes following DHPG
  mEPSC amplitude, % baseline: 94.2%
[2]; 60 minutes after DHPG 50 μM
  mEPSC inter-event interval, % of baseline: 319%
[2]; 60 minutes following DHPG
  mEPSC amplitude, % baseline: 92.2%
[3]
  NMDA-evoked currents, percent baseline: 61.1±12.0 percent baseline

From patent US7648993B2, “Methods of treating disorders with Group I mGluR antagonists” (Brown University, priority 2001, dated 2010)
